Results: patent US5026704A, “Benzo[f]quinoxaline-2,3(1H,4H)-diones” (Novo Nordisk A/S, priority 1987, dated 1991)
Values after ≈ are worked out from the molar mass of the structure shown.

Assays:
[1] = target: quisqualate type receptors; experiment: ^3 H-AMPA binding: displacement of ^3 H-AMPA from quisqualate type receptors in cerebral cortical membrane homogenate; design: species or system rat; details: displacement of 50% of specific ^3 H-AMPA binding; 5 nM ^3 H-AMPA, 0° C., 30 min, pH 7.1
Method: The pharmacological properties of the compounds of the present invention can be illustrated by determining their capability for displacing radioactively labelled 2-amino-3-hydroxy-5-methyl-4-isoxazolepropionic acid (AMPA) from the quisqualate type receptors.
The displacement activity of the compounds may be shown by determining the IC50 value which represents the concentration (μg/ml) which causes a displacement of 50% of the specific binding of ^3 H-AMPA.
500 μl of thawed rat cerebral cortical membrane homogenate in Tris-HCl (30 mM), CaCl2 (2.5 mM) and KSCN (100 mM) pH 7.1 were incubated at 0° C. for 30 min. with 25 μl ^3 H-AMPA (5 nM final concentration) and the test compound and buffer. Nonspecific binding was determined by incubation with L-glutamic acid (600 μM final concentration). The binding reaction was terminated by adding 5 ml of ice-cold buffer followed by filtration through Whatman GF/C glass fibre filters and 2×5 ml wash with ice-cold buffer. Bound radioactivity was measured by scintillation counting. IC50 was determined by Hill analysis of at least four concentrations of test compound.

[2] = system: quisqualic acid stimulated ^3 H-GABA-efflux from cultured cortical neurones; experiment: Antagonism of quisqualic acid stimulated ^3 H-GABA efflux from cultured cortical neurones (release experiments); assay type: cell-based, mouse; details: Rattus norvegicus, Cortical neurone; concentration which reduces the rate of quisqualic acid stimulated ^3 H-GABA efflux by 50%; 37° C., pH 7.4

SMILES	IC50 [1] [µg/mL]	EC50 [2] [µg/mL]
Cn1c(=O)c(=O)[nH]c2c3ccccc3ccc21 [Compound 13, 4-Methylbenzo[f]quinoxaline-2,3(1H,4H)-dione]	0.42 (≈ 1.86 µM)	2.1 (≈ 9.28 µM)
O=c1[nH]c2cc([N+](=O)[O-])c(Cl)cc2n(C2CCCCC2)c1=O [Compound 16, 1-Cyclohexyl-6-nitro-7-chlorquinoxaline-2,3(1H,4H)-dione]	0.69 (≈ 2.13 µM)	
O=c1[nH]c2c3ccccc3ccc2n(C2CCCCC2)c1=O [Compound 27k, 4-Cyclohexylbenzo[f]quinoxaline-2,3(1H,4H)-dione]	0.61 (≈ 2.07 µM)	> 4
Cn1c(=O)c(=O)[nH]c2cc([N+](=O)[O-])ccc21 [Compound 7, 1-Methyl-6-nitroquinoxaline-2,3(1H,4H)-dione]	0.96 (≈ 4.34 µM)	2.1 (≈ 9.49 µM)
